In the assay the target is T1, Thermolysin (Bacillus thermoproteolyticus, UniProt P00800).
T1 sequence (P00800 whole entry): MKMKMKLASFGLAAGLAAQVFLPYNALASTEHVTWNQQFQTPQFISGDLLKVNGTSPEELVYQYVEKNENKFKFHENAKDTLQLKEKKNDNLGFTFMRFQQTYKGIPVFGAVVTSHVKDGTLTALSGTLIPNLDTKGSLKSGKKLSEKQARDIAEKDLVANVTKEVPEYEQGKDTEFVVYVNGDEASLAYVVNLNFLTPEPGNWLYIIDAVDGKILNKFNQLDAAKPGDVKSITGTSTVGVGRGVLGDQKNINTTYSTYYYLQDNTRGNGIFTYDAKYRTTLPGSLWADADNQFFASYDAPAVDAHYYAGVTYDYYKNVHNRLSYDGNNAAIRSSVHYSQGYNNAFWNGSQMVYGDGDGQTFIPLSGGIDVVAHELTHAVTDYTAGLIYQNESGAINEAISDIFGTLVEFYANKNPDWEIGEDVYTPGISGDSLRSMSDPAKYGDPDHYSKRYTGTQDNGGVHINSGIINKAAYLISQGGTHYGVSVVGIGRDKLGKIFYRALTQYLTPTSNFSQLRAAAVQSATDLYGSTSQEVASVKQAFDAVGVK
The assay can be described thus: Binding affinity to Bacillus thermoproteolyticus thermolysin by UV-VIS spectrophotometric analysis in presence of 2-furanacryloyl-Gly-Leu-NH2.
For the compound `CC(C)C[C@H](NP(=O)(O)CNC(=O)OCc1ccccc1)C(=O)NCC(=O)O`, the Ki is 472 nM. The figure for `CC(C)C[C@H](NP(=O)(O)CNC(=O)OCc1ccccc1)C(=O)N[C@@H](C)C(=O)O` is 19.1 nM; for `CNC(=O)[C@H](CC(C)C)NP(=O)(O)CNC(=O)OCc1ccccc1` it is 902 nM.

Take `CCNC(=O)[C@H](CC(C)C)NP(=O)(O)CNC(=O)OCc1ccccc1`: the Ki was 289 nM.
